Consider 17 compounds from US20230121086A1, “RORgT INHIBITOR, PREPARATION METHOD THEREOF AND USE THEREOF” (SUNSHINE LAKE PHARMA CO., LTD., priority 2020, published 2023).

What is called IC50 is the concentration that gives 50% inhibition. What is called AUC(0-t) is the area under the concentration-time curve up to a stated or last time point. For orientation: Cmax means the maximum level reached in the sampled fluid or tissue. For orientation: bioavailability means the share of a dose that reaches the circulation, judged against a reference dose that is usually intravenous.

Like-named read-outs stand apart in the source and are kept apart here. Marks after values point to notes of the source that are not given here.

Data set [1] concerns rat liver microsomes. The data set can be described thus: Stability in rat liver microsomes. The following applies: 0.5 mg protein/mL, 1.5 μM compound, 37° C., NADPH. It is filed as in vitro ADME. On the technique in general: Liver microsomes are a subcellular fraction often used to study metabolism.
Data set [2] has as its system IMQ-induced mouse psoriasis model. The data set can be described thus: IMQ-induced mouse psoriasis model, ear weight. In kind it is in vivo, c57bl/6 mice.
The target in data set [3] is T1, RORγt (Homo sapiens, UniProt P51449).
T1 construct: […]
T1 sequence (P51449 269-508 limits assumed): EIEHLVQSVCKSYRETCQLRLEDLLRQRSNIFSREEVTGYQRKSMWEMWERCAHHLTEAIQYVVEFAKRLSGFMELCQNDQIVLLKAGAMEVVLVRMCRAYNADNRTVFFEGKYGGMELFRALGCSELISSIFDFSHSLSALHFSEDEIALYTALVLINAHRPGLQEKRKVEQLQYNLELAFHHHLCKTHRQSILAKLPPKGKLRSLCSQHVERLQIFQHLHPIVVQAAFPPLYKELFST
As to the kind of experiment: Fluorescence resonance energy transfer (FRET) test, inhibitory activity of RORγt. In kind it is biochemical.

The test system of data set [4] is inflammatory factor IL-17. As to the kind of experiment: LPS-induced mouse blood inflammatory factor IL-17 model. It is filed as in vivo, BALB/c mice. The following applies: for Inhibition rate % / IL-17 (pg/ml): Table 7, 30 mg/kg; for IL-17 (pg/ml): plasma 4 hours after LPS, model group 174.69.
The test system of data set [5] is inflammatory factor IL-17. The data set can be described thus: IMQ-induced mouse psoriasis model, IL-17 in the ear. In kind it is in vivo, c57bl/6 mice.
The nature of data set [6]: Pharmacokinetic evaluation in ICR mice. In kind it is in vivo. The following applies: mouse, plasma, po; for AUC(0-t) / Cmax / half-life: 5 mg/kg; for bioavailability: p.o. 5 mg/kg vs i.v. 1 mg/kg, read-out: Oral bioavailability (F).
A short description of data set [7]: Stability in human liver microsomes. It is filed as in vitro ADME.
Setting [8] is: FRET, B-RORγt LBD / Biotin-SRC1, read-out: IC50.

For the compound `CCS(=O)(=O)c1ccc([C@H](CC#N)NC(=O)c2ccc(N3CC(Oc4ccc(OC(F)(F)F)cc4)C[C@H]3COC(F)F)cc2)cc1` (stereo in doubt) [Example 64, N-((S)-2-cyano-1-(4-(ethylsulfonyl)phenyl)ethyl)-4-((2S,4S)-2-((difluoromethoxy)methyl)-4-(4-(trifluoromethoxy)phenoxy)pyrrolidin-1-yl)benzamide], the “Rat Half-life t1/2 (min)” value in data set [1] was “Not metabolized”. In addition, in data set [2] (90 mg/kg, oral gavage), the “Inhibition rate % (ear weight)” value amounted to 22%. The “Average ear weight (mg)” value in data set [2] (90 mg/kg, oral gavage, 10 days modeling, model group 28.12, normal group 13.03) was 24.84* mg. The “Effect on the ear weight of mice compared with the model group” value in data set [2] (P<0.05) is recorded as “significantly reduce”. Further, the concentration for half-maximal inhibition (IC50) in data set [3] (setting [8]) came out at 11 nM. Moreover, in data set [4], the “Effect on LPS-induced mouse blood inflammatory factor IL-17” value was “significantly reduce”, the Inhibition rate % was 65% and the “IL-17 (pg/ml)” value is recorded as 58.48 ** pg/ml. Further, the “Inhibition rate (IL-17 in the ear)” value in data set [5] (90 mg/kg) was 72.47%. Besides, in data set [5] (90 mg/kg, ear homogenate supernatant, model group 29.78, normal group 0.00), the “IL-17 Concentration (pg/μg protein)” value is given as 8.20 ** pg/μg protein. Moreover, the “Effect on the secretion of IL-17 in the ear of mice compared with the model group” value in data set [5] (P<0.05) is reported as “significantly reduce”. Moreover, in data set [6], the exposure AUC(0-t) amounted to 47.2 µM·h, the Cmax amounted to 3.33 µM, the half-life was 13.2 h and the bioavailability turned out to be 91%.

As to `CCS(=O)(=O)c1ccc([C@H](CC#N)NC(=O)c2ccc(N3CC(Oc4ccc(C(F)(F)F)cn4)C[C@H]3COC(F)F)cc2)cc1` (stereo in doubt) [Example 65, N-((S)-2-cyano-1-(4-(ethylsulfonyl)phenyl)ethyl)-4-((2S,4S)-2-((difluoromethoxy)methyl)-4-((5-(trifluoromethyl)pyridine-2-yl)oxy)pyrrolidin-1-yl)benzamide], the “Rat Half-life t1/2 (min)” value in data set [1] is recorded as “Not metabolized”. The half-life at 1.5 μM in data set [7] (pH 7.4, 0.5 mg protein/mL, 1.5 μM compound, 37° C., NADPH, read-out: Human Half-life t1/2) was found to be 1.34 h. In data set [7] (pH 7.4, intrinsic hepatic clearance inferred from microsomal incubation, read-out: Human Clearance rate), the CLint scaled at 1.5 μM was 21.6 mL/min/kg. In data set [4], the “Effect on LPS-induced mouse blood inflammatory factor IL-17” value is “significantly reduce”, the Inhibition rate % was found to be 63% and the “IL-17 (pg/ml)” value is given as 61.71 ** pg/ml. In data set [6], the AUC(0-t) is 78 µM·h, the highest level (Cmax) was 7 µM, the half-life is 7.9 h and the bioavailability amounted to 82%.

For `CCS(=O)(=O)c1ccc([C@H](COC(N)=O)NC(=O)c2cnc(N3C[C@@H](Oc4ccc(Cl)cn4)C[C@H]3COC(F)F)c(F)c2)cc1` [Example 164, (R)-2-(6-((2S,4S)-4-((5-chloropyridin-2-yl)oxy)-2-((difluoromethoxy)methyl)pyrrolidin-1-yl)-5-fluoronicotinamido)-2-(4-(ethylsulfonyl)phenyl)ethyl carbamate], in data set [3] (setting [8]), the concentration for half-maximal inhibition (IC50) came to 3.1 nM.

Consider `CCS(=O)(=O)c1ccc([C@H](COC(N)=O)NC(=O)c2ccc(N3C[C@@H](Oc4ccc(-n5cccn5)cn4)C[C@H]3COC(F)F)nc2)cc1` [Example 168, (R)-2-(6-((2S,4S)-4-((5-(1H-pyrazol-1-yl)pyridine-2-yl)oxy)-2-((difluoromethoxy)methyl)pyrrolidin-1-yl)nicotinylamino)-2-(4-(ethylsulfonyl)phenyl)ethyl carbamate], for which the IC50 in data set [3] (setting [8]) is 8 nM.

Take `[2H]C([2H])(NC(=O)c1ccc(N2C[C@@H](Oc3ccc(OC(F)(F)F)cn3)C[C@H]2COC(F)F)cc1)c1ccc(S(=O)(=O)CC)cc1` [Example 169, N-(Dideuterium(4-(ethylsulfonyl)phenyl)methyl)-4-((2S,4S)-2-((difluoromethoxy)methyl)-4-((5-(trifluoromethoxy)pyridin-2-yl)oxy)pyrrolidin-1-yl) benzamide]: in data set [3], the IC50 worked out at 6 nM.

Take `CCS(=O)(=O)c1ccc([C@H](COC(N)=O)NC(=O)c2ccc(N3C[C@@H](Oc4ccc(-n5nccn5)cn4)C[C@H]3COC(F)F)cc2)cc1` [Example 170, (R)-2-(4-((2S,4S)-4-((5-(2H-1,2,3-triazol-2-yl)pyridine-2-yl)oxy)-2-((difluoromethoxy)methyl)pyrrolidin-1-yl)benzoylamino)-2-(4-(ethylsulfonyl)phenyl)ethyl carbamate]: the IC50 in data set [3] (setting [8]) worked out at 9 nM.

As to `CCS(=O)(=O)c1ccc([C@H](CC(=O)O)NC(=O)c2ccc(N3C[C@@H](Oc4ccc(-n5cccn5)cn4)C[C@H]3COC(F)F)cc2)cc1` [Example 172, (S)-3-(4-((2S,4S)-4-((5-(1H-pyrazol-1-yl)pyridine-2-yl)oxy)-2-((difluoromethoxy)methyl)pyrrolidin-1-yl)benzamido)-3-(4-(ethylsulfonyl)phenyl)propionic Acid], the IC50 in data set [3] (setting [8]) was 23.5 nM.

Turning to `CCS(=O)(=O)c1ccc([C@H](COC(N)=O)NC(=O)c2ccc(N3C[C@@H](Oc4ccc(-n5nccn5)cn4)C[C@H]3COC(F)F)nc2)cc1` [Example 173, (R)-2-(6-((2S,4S)-4-((5-(2H-1,2,3-triazol-2-yl)pyridine-2-yl)oxy)-2-((difluoromethoxy)methyl)pyrrolidin-1-yl)nicotinylamino)-2-(4-(ethylsulfonyl)phenyl)ethyl carbamate], in data set [3] (setting [8]), the 50% inhibitory concentration (IC50) stood at 3.8 nM.

Regarding `CCS(=O)(=O)c1ccc([C@H](COCC(=O)O)NC(=O)c2ccc(N3C[C@@H](Oc4ccc(-n5cccn5)cn4)C[C@H]3COC(F)F)nc2)cc1` [Example 175, 2-((R)-2-(6-((2S,4S)-4-((5-(1H-pyrazol-1-yl)pyridine-2-yl)oxy)-2-((difluoromethoxy)methyl)pyrrolidin-1-yl)nicotinylamino)-2-(4-(ethylsulfonyl)phenyl)ethoxy)acetic Acid], in data set [3] (setting [8]), the IC50 is 39.2 nM.

With `CCS(=O)(=O)c1ccc([C@H](COC(N)=O)NC(=O)c2ccc(N3C[C@@H](Oc4ccc(OC(F)(F)F)cn4)C[C@H]3CF)nc2)cc1` [Example 176, (R)-2-(4-(Ethylsulfonyl)phenyl)-2-(6-((2S,4S)-2-(fluoromethyl)-4-((5-(trifluoromethoxy)pyridin-2-yl)oxy)pyrrolidin-1-yl)nicotinamido)ethyl carbamate], in data set [3] (setting [8]), the concentration for half-maximal inhibition (IC50) worked out at 7.3 nM.

As to `CCS(=O)(=O)c1ccc([C@H](COC(N)=O)NC(=O)c2cnc(N3CCCC3c3cccc(F)c3)nc2)cc1` (stereo partly drawn) [Example 177, (2R)-2-(4-(Ethylsulfonyl)phenyl)-2-(2-(2-(3-fluorophenyl)pyrrolidin-1-yl)pyrimidine-5-carboxamido)ethyl carbamate], the IC50 in data set [3] (setting [8]) amounted to 27.4 nM.

As for `CCS(=O)(=O)c1ccc([C@H](CC(=O)O)NC(=O)c2cnc(N3CCCC3c3cccc(F)c3)nc2)cc1` (stereo partly drawn) [Example 178, (3S)-3-(4-(Ethylsulfonyl)phenyl)-3-(2-(2-(3-fluorophenyl)pyrrolidin-1-yl)pyrimidine-5-carboxamido)propionic Acid], in data set [3] (setting [8]), the half-maximal inhibitory concentration (IC50) is 46.2 nM.

Consider `CCS(=O)(=O)c1ccc([C@H](COC(N)=O)NC(=O)c2cnc(N3CC(F)(F)CC3c3cccc(F)c3)nc2)cc1` (stereo partly drawn) [Example 179, (2R)-2-(2-(4,4-difluoro-2-(3-fluorophenyl)pyrrolidin-1-yl)pyrimidine-5-carboxamido)-2-(4-(ethylsulfonyl)phenyl)ethyl carbamate], for which the IC50 in data set [3] (setting [8]) turned out to be 9.4 nM.

In the case of `NC(=O)OCC(C(=O)Nc1ccc(C(O)(C(F)(F)F)C(F)(F)F)cc1)c1ccc(S(=O)(=O)CC2CC2)cc1` (stereo not shown) [Example 182, 2-(4-((cyclopropylmethyl)sulfonyl)phenyl)-3-((4-(1,1,1,3,3,3-hexafluoro hydroxypropan-2-yl)phenyl)amino)-3-oxopropyl carbamate], the 50% inhibitory concentration (IC50) in data set [3] (setting [8]) was determined as 55.8 nM.

For the compound `CCS(=O)(=O)c1ccc([C@H](COC(N)=O)NC(=O)c2ccc(N3C[C@@H](Oc4ccc(Cl)cn4)C[C@H]3COC(F)F)nc2)cc1` [Example 183, (R)-2-(6-((2S,4S)-4-((5-chloropyridin-2-yl)oxy)-2-((difluoromethoxy)methyl)pyrrolidin-1-yl)nicotinamido)-2-(4-(ethylsulfonyl)phenyl)ethyl carbamate], the IC50 in data set [3] (setting [8]) is 10 nM.

Consider “N—((S)-2-cyano-1-(4-(ethylsulfonyl)phenyl)ethyl)-4-((2S,4S)-2-((difluoromethoxy)methyl)-4-(4-(4-fluoro-1H-pyrazol-1-yl)phenoxy)pyrrolidin-1-yl) benzamide [Example 161]”, for which the IC50 in data set [3] (setting [8]) was found to be 10.4 nM.

With “N—((S)-2-cyano-1-(4-(ethylsulfonyl)phenyl)ethyl)-4-((2S,5R)-5-(2,2-difluorobenzo[1,3]dioxol yl)-2-((difluoromethoxy)methyl)piperidin-1-yl)benzamide [Example 112-2]”, the IC50 in data set [3] (setting [8]) is 13 nM.
